Where a name gives a salt, the structure may show the parent alone.
Assay: Stability of ketotifen fumarate in borate buffered saline over autoclave cycles, analysed by HPLC
Assay type: physicochemical
Settings: for % ketotifen: no PAA; for % ketotifen Unsparged: Example 3: buffer with poly(acrylic acid); for % ketotifen Nitrogen Sparged: Example 4: buffer with poly(acrylic acid); for ketotifen stability: after autoclaving
Protocol: A buffer solution was formed by dissolving 8.3 gm NaCl (from Sigma Aldrich), 9.1 gm boric acid (from Mallinckrodt) and 1 gm sodium borate (from Mallinckrodt) in 1 L deionized water (from Milli Q). […] Ketotifen fumarate (from Sigma Aldrich) was added to prepare a solution of approximately 80 ppm in the buffer solution. The ketotifen solution (3 mL) was placed in vials, autoclaved for the number of cycles shown in Table 1, below and analyzed as a function of autoclave cycle (3 replicate per autoclave cycle) using HPLC using an HP1100 and an Agilent Zorbax Eclipse XDB-C18 and Rapid Resolution HT 50×4.6 mm×1.8μ column and the following conditions:
Mobile Phase: • Eluent A: 17% acetonitrile in 0.025 M dihydrogen potassium phosphate buffer • 0.2% triethylamine, 0.13% o-phosphoric acid • Eluent B: 50% acetonitrile in 0.025 M dihydrogen potassium phosphate buffer • 0.2% triethylamine, 0.13% o-phosphoric acid
Example 1 was repeated, except that the buffer solution was sparged (with nitrogen) overnight (˜12 hrs) at about 370 standard cubic centimeter per minute (SCCM) and subsequently transferred to a nitrogen box (<0.5% oxygen). The ketotifen solution of about 90 ppm was prepared and placed in vials as described above, but in nitrogen box. The vials were autoclaved and analyzed as described in Example 1.
Examples 1 and 2 was repeated, except that 10 gm of poly(acrylic acid) (PAA, Mw, 225,000, from Polysciences, Inc., 20% in water) was added to the buffer solution. The vials were autoclaved and analyzed as described in Example 1.

CN1CCC(=C2c3ccccc3CC(=O)c3sccc32)CC1 [ketotifen, Ketotifen fumarate]
% ketotifen (Example 1: ~80 ppm in buffer pH 7.65, unsparged, autoclave cycle 0): 100%
% ketotifen (Example 1: ~80 ppm in buffer pH 7.65, unsparged, autoclave cycle 1): 0%
% ketotifen (Example 1: ~80 ppm in buffer pH 7.65, unsparged, autoclave cycle 2): 0%
% ketotifen (Example 1: ~80 ppm in buffer pH 7.65, unsparged, autoclave cycle 3): 0%
% ketotifen (Example 2: ~90 ppm, buffer nitrogen sparged ~12 hrs, nitrogen box, autoclave cycle 0): 100%
% ketotifen (Example 2: ~90 ppm, buffer nitrogen sparged ~12 hrs, nitrogen box, autoclave cycle 1): 98%
% ketotifen (Example 2: ~90 ppm, buffer nitrogen sparged ~12 hrs, nitrogen box, autoclave cycle 2): 98%
% ketotifen (Example 2: ~90 ppm, buffer nitrogen sparged ~12 hrs, nitrogen box, autoclave cycle 3): 98%
% ketotifen Unsparged (autoclave cycle 0): 100%
% ketotifen Unsparged (autoclave cycle 1): 94%
% ketotifen Unsparged (autoclave cycle 2): 81%
% ketotifen Unsparged (autoclave cycle 3): 66%
% ketotifen Nitrogen Sparged (autoclave cycle 0): 100%
% ketotifen Nitrogen Sparged (autoclave cycle 1): 99%
% ketotifen Nitrogen Sparged (autoclave cycle 2): 99%
% ketotifen Nitrogen Sparged (autoclave cycle 3): 98%
ketotifen stability (buffer sparged and solution kept under nitrogen (Table 2)): 98%
ketotifen stability (unsparged buffer (Table 1)): 0%
